From US7138361B2, “Herbicidal heterocycles” (E. I. du Pont de Nemours and Company, priority 2000, dated 2006)

How the values were obtained:
Assay type in all cases: in vivo
[1] = system: barnyardgrass (Echinochloa crus-galli); assay: Test B preemergence
Procedure, shortened: (§1)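 Post-treatment, species sat 13–15 days under greenhouse conditions before visual scoring against controls, 0 (no effect) through 100 (complete control). Application preemergence to sown seeds or postemergence at 1- to 4-leaf stage, using a non-phytotoxic solvent/surfactant formulation.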

rice (Oryza saliva) [2] = assay: Test B preemergence
Procedure, shortened: as §1

[3] = system: cocklebur (Xanthium strumarium); assay: Test B preemergence
Procedure, shortened: as §1

[4] = system: pigweed (Amaranthus retroflexus); assay: Test B preemergence
Procedure, shortened: as §1

corn (Zea mays) [5] = assay: Test B preemergence
Procedure, shortened: as §1

[6] = system: giant foxtail (Setaria faberii); assay: Test B preemergence
Procedure, shortened: as §1

[7] = system: Surinam grass (Brachiaria decumbens); assay: Test B preemergence
Procedure, shortened: as §1

[8] = system: lambsquarters (Chenopodium album); assay: Test B preemergence
Procedure, shortened: as §1

[9] = system: crabgrass (Digitaria sanguinalis); assay: Test B preemergence
Procedure, shortened: as §1

[10] = system: velvetleaf (Abutilon theophrasti); assay: Test B preemergence
Procedure, shortened: as §1

[11] = system: morning glory (Ipomoea hederacea); assay: Test B preemergence
Procedure, shortened: as §1

[12] = system: barnyardgrass (Echinochloa crus-galli); assay: Test B postemergence; conditions: 13 to 15 days
Procedure, shortened: as §1

[13] = system: blackgrass (Alopecurus myosuroides); assay: Test B postemergence; conditions: 13 to 15 days
Procedure, shortened: as §1

[14] = system: cocklebur (Xanthium strumarium); assay: Test B postemergence; conditions: 13 to 15 days
Procedure, shortened: as §1

[15] = system: pigweed (Amaranthus retroflexus); assay: Test B postemergence; conditions: 13 to 15 days
Procedure, shortened: as §1

corn (Zea mays) [16] = assay: Test B postemergence; conditions: 13 to 15 days
Procedure, shortened: as §1

[17] = system: wheat (Triticum aestivum); assay: Test B postemergence; conditions: 13 to 15 days
Procedure, shortened: as §1

[18] = system: giant foxtail (Setaria faberii); assay: Test B postemergence; conditions: 13 to 15 days
Procedure, shortened: as §1

[19] = system: Surinam grass (Brachiaria decumbens); assay: Test B postemergence; conditions: 13 to 15 days
Procedure, shortened: as §1

[20] = system: lambsquarters (Chenopodium album); assay: Test B postemergence; conditions: 13 to 15 days
Procedure, shortened: as §1

wild oat (Avena fatua) = assay: Test B postemergence; conditions: 13 to 15 days
Procedure, shortened: as §1

[21] = system: crabgrass (Digitaria sanguinalis); assay: Test B postemergence; conditions: 13 to 15 days
Procedure, shortened: as §1

[22] = system: velvetleaf (Abutilon theophrasti); assay: Test B postemergence; conditions: 13 to 15 days
Procedure, shortened: as §1

[23] = system: morning glory (Ipomoea hederacea); assay: Test B postemergence; conditions: 13 to 15 days
Procedure, shortened: as §1

Sunflower = assay: Test C preemergence; conditions: scale 0 to 100, 0 no effect, 100 complete control
Nightshade = assay: Test C preemergence; conditions: visual evaluation after 12 to 14 days
rice (Oryza saliva) [24] = assay: Test C flooded paddy test; conditions: for Rice plant response rating: Flooded Paddy, scale 0 to 100, 0 no effect, 100 complete control; for Plant response rating, Rice: flooded paddy test, scale 0 to 100 (0 no effect, 100 complete control)
Procedure, shortened: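 Response on a 0-to-100 scale (no effect to complete control) was assessed by eye versus controls. Plants had reached 2 leaves when treated in flooded paddy conditions. The assessment took place after 12–14 days of greenhouse growth.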

[25] = Preemergence, Rate 500 g/ha, scale 0 to 100, 0 no effect, 100 complete control
[26] = preemergence, Rate 125 g/ha, scale of 0 to 100 where 0 is no effect and 100 is complete control, 13 to 15 days
[27] = Rate 125 g/ha, scale 0 (no effect) to 100 (complete control)
[28] = Rate 500 g/ha, scale 0 to 100, 0 is no effect, 100 is complete control
[29] = preemergence, Rate 125 g/ha, scale 0 to 100, 0 no effect, 100 complete control

Cc1ccc(N2CCC(n3ccc(C(C)(C)C)n3)C2=O)cc1OC(F)F (centres unmarked) [Compound 79]
10: Plant response rating, Lambsquarters [20, 28]
0: Plant response rating, Cocklebur [3, 25] | Plant response rating, Cocklebur [3, 26] | Plant response rating, Corn (corn (Zea mays) [5]; [25]) | Plant response rating, Corn (corn (Zea mays) [5]; [26]) | Plant response rating, Foxtail, Giant [6, 26] | Plant response rating, Velvetleaf [10, 26] | Plant response rating, Morningglory [11, 26] | Plant response rating, Barnyardgrass [12, 27] | Plant response rating, Barnyardgrass [12, 28] | Plant response rating, Blackgrass [13, 27] | Plant response rating, Blackgrass [13, 28] | Plant response rating, Corn (corn (Zea mays) [16]; [27]) | Plant response rating, Corn (corn (Zea mays) [16]; [28]) | Plant response rating, Wheat [17, 27] | Plant response rating, Wheat [17, 28] | Plant response rating, Foxtail, Giant [18, 27] | Plant response rating, Foxtail, Giant [18, 28] | Plant response rating, Surinam grass [19, 27] | Plant response rating, Surinam grass [19, 28] | Plant response rating, Lambsquarters [20, 27] | Plant response rating, Wild Oat (wild oat (Avena fatua); [27]) | Plant response rating, Wild Oat (wild oat (Avena fatua); [28]) | Plant response rating, Crabgrass [21, 27] | Plant response rating, Crabgrass [21, 28] | Plant response rating, Velvetleaf [22, 27] | Plant response rating, Velvetleaf [22, 28] | Plant response rating, Rice (rice (Oryza saliva) [24]; Rate 62 g/ha)
40: Plant response rating, Morningglory [23, 28]
60: Plant response rating, Foxtail, Giant [6, 25]
100: Plant response rating, Barnyardgrass [1, 25] | Plant response rating, Pigweed [4, 25] | Plant response rating, Pigweed [4, 26] | Plant response rating, Lambsquarters [8, 25] | Plant response rating, Lambsquarters [8, 26] | Plant response rating, Crabgrass [9, 25] | Plant response rating, Crabgrass [9, 26] | Plant response rating, Morningglory [11, 25]
70: Plant response rating, Barnyardgrass [1, 26] | Plant response rating, Surinam grass [7, 26] | Plant response rating, Pigweed [15, 27] | Plant response rating, Pigweed [15, 28]
50: Plant response rating, Rice (rice (Oryza saliva) [2]; [26]) | Plant response rating, Sunflower (Sunflower; Rate 250 g/ha) | Rice plant response rating (rice (Oryza saliva) [24]; Rate 500 g/ha)
20: Rice plant response rating (rice (Oryza saliva) [24]; Rate 250 g/ha) | Plant response rating, Rice (rice (Oryza saliva) [24]; Rate 125 g/ha)
30: Plant response rating, Cocklebur [14, 27] | Plant response rating, Cocklebur [14, 28] | Plant response rating, Morningglory [23, 27]
90: Plant response rating, Rice (rice (Oryza saliva) [2]; [25]) | Plant response rating, Surinam grass [7, 25] | Plant response rating, Velvetleaf [10, 25] | Plant response rating (0 to 100), Nightshade (Nightshade; Rate 500 g/ha)

CCC(C)c1ccn(C2SCN(c3cccc(OC(F)(F)F)c3)C2=O)n1 (centres unmarked) [Compound 40]
40: Plant response rating, Pigweed [15, 27] | Plant response rating (0 to 100), Nightshade (Nightshade; Rate 250 g/ha) | Plant response rating, Rice (rice (Oryza saliva) [24]; Rate 125 g/ha)
70: Plant response rating, Foxtail, Giant [6, 29] | Plant response rating, Foxtail, Giant [18, 27] | Plant response rating, Lambsquarters [20, 27] | Rice plant response rating (rice (Oryza saliva) [24]; Rate 250 g/ha)
50: Plant response rating, Cocklebur [14, 28] | Plant response rating, Corn (corn (Zea mays) [16]; [28])
0: Plant response rating, Cocklebur [3, 25] | Plant response rating, Cocklebur [3, 29] | Plant response rating, Corn (corn (Zea mays) [5]; [29]) | Plant response rating, Velvetleaf [10, 25] | Plant response rating, Blackgrass [13, 27] | Plant response rating, Blackgrass [13, 28] | Plant response rating, Corn (corn (Zea mays) [16]; [27]) | Plant response rating, Wheat [17, 27] | Plant response rating, Wheat [17, 28] | Plant response rating, Surinam grass [19, 27] | Plant response rating, Surinam grass [19, 28] | Plant response rating, Wild Oat (wild oat (Avena fatua); [27]) | Plant response rating, Wild Oat (wild oat (Avena fatua); [28]) | Plant response rating, Velvetleaf [22, 27] | Plant response rating, Velvetleaf [22, 28] | Plant response rating, Sunflower (Sunflower; Rate 125 g/ha)
80: Plant response rating, Pigweed [15, 28]
30: Plant response rating, Cocklebur [14, 27]
10: Plant response rating, Morningglory [23, 27]
60: Plant response rating, Corn (corn (Zea mays) [5]; [25]) | Plant response rating, Surinam grass [7, 29] | Plant response rating, Morningglory [11, 25] | Plant response rating, Crabgrass [21, 27]
90: Plant response rating, Surinam grass [7, 25] | Plant response rating, Barnyardgrass [12, 27] | Plant response rating, Foxtail, Giant [18, 28] | Plant response rating, Lambsquarters [20, 28] | Plant response rating, Crabgrass [21, 28] | Rice plant response rating (rice (Oryza saliva) [24]; Rate 500 g/ha)
100: Plant response rating, Barnyardgrass [1, 25] | Plant response rating, Barnyardgrass [1, 29] | Plant response rating, Rice (rice (Oryza saliva) [2]; [25]) | Plant response rating, Pigweed [4, 25] | Plant response rating, Foxtail, Giant [6, 25] | Plant response rating, Lambsquarters [8, 25] | Plant response rating, Lambsquarters [8, 29] | Plant response rating, Crabgrass [9, 25] | Plant response rating, Crabgrass [9, 29] | Plant response rating, Barnyardgrass [12, 28]
20: Plant response rating, Morningglory [23, 28] | Plant response rating, Rice (rice (Oryza saliva) [24]; Rate 62 g/ha)

CCC(C)c1ccn(C2CCN(c3cccc(OC)c3)C2=O)n1 (centres unmarked) [Compound 95]
30: Plant response rating, Barnyardgrass [12, 28]
20: Plant response rating, Corn (corn (Zea mays) [5]; [26]) | Plant response rating, Cocklebur [14, 28] | Plant response rating, Crabgrass [21, 28] | Plant response rating, Morningglory [23, 28] | Plant response rating, Rice (rice (Oryza saliva) [24]; Rate 125 g/ha)
100: Plant response rating, Barnyardgrass [1, 25] | Plant response rating, Rice (rice (Oryza saliva) [2]; [25]) | Plant response rating, Pigweed [4, 25] | Plant response rating, Pigweed [4, 26] | Plant response rating, Foxtail, Giant [6, 25] | Plant response rating, Foxtail, Giant [6, 26] | Plant response rating, Lambsquarters [8, 25] | Plant response rating, Lambsquarters [8, 26] | Plant response rating, Crabgrass [9, 25] | Plant response rating, Crabgrass [9, 26]
60: Plant response rating, Cocklebur [3, 25] | Plant response rating, Surinam grass [7, 26] | Plant response rating, Morningglory [11, 25] | Plant response rating, Pigweed [15, 28]
70: Rice plant response rating (rice (Oryza saliva) [24]; Rate 250 g/ha)
50: Plant response rating, Corn (corn (Zea mays) [5]; [25]) | Plant response rating, Velvetleaf [10, 25]
0: Plant response rating, Cocklebur [3, 26] | Plant response rating, Velvetleaf [10, 26] | Plant response rating, Morningglory [11, 26] | Plant response rating, Barnyardgrass [12, 27] | Plant response rating, Blackgrass [13, 27] | Plant response rating, Blackgrass [13, 28] | Plant response rating, Cocklebur [14, 27] | Plant response rating, Corn (corn (Zea mays) [16]; [27]) | Plant response rating, Corn (corn (Zea mays) [16]; [28]) | Plant response rating, Wheat [17, 28] | Plant response rating, Foxtail, Giant [18, 27] | Plant response rating, Foxtail, Giant [18, 28] | Plant response rating, Surinam grass [19, 27] | Plant response rating, Surinam grass [19, 28] | Plant response rating, Wild Oat (wild oat (Avena fatua); [28]) | Plant response rating, Crabgrass [21, 27] | Plant response rating, Velvetleaf [22, 28] | Plant response rating, Sunflower (Sunflower; Rate 250 g/ha) | Plant response rating, Rice (rice (Oryza saliva) [24]; Rate 62 g/ha)
45: Plant response rating (0 to 100), Nightshade (Nightshade; Rate 500 g/ha)
90: Plant response rating, Barnyardgrass [1, 26] | Plant response rating, Rice (rice (Oryza saliva) [2]; [26]) | Plant response rating, Surinam grass [7, 25] | Plant response rating, Lambsquarters [20, 28] | Rice plant response rating (rice (Oryza saliva) [24]; Rate 500 g/ha)
